This series can be described thus: In vitro skin permeation, Franz-type diffusion cells, with light device irradiation. It counts as in vitro ADME, pig. As to conditions: Fucicort cream 4 mg/cm^2 on SC, p<0.005.

The structures appear in SMILES notation.

Procedure: Full Thickness skin is removed from the back of pig ears. The subcutaneous tissue is removed and the skin is mounted in open two-chamber Franz-type diffusion cells (diffusion area: 3.14 cm^−2; recipient volume: 10 ml). Temperature is kept at 32° C. at the skin surface. Recipient phase is a 0.05 M isotonic acetate buffer, pH 4.5, and 2-propanol (80:20%, vol/vol). The experiments are carried out under sink condition.
The test formulation (4 mg/cm^2) is applied to the stratum corneum (SC) side of the skin. The treatment is reapplied at 3, 21, 27, 45, and 51 h, which simulates the actual dosage regimen in patients. At appropriate times (3, 21, 27, 45, 51, and 70 h) a specific amount of recipient phase is withdrawn and replaced by thermostated fluid. Samples are kept at 4° C. for a maximum of 2 days until high-performance liquid chromatography (HPLC) analysis. All permeation experiments are carried out in 6 replicates.
The same experiment as described above is carried out.
The same experiment as described above is carried out. Again, the skin is irradiated for 2 h after each application of the cream, but with the devices Dev4-6 of Example 4 in three separate runs, one run for each device. The devices are positioned directly above the SC. If the cream is applied or reapplied the light emitting device is repositioned on the SC 5 minutes afterwards. After having the skin irradiated for 1 h, the irradiation source is removed from the skin. Again samples of the recipient are taken and analyzed by HPLC in time intervals given above.

Turning to `C[C@H]1C[C@H]2[C@@H]3CCC4=CC(=O)C=C[C@]4(C)[C@@]3(F)[C@@H](O)C[C@]2(C)[C@@]1(O)C(=O)CO` [betamethasone], the “permeation enhanced as compared to the control experiment” value is, setting by setting: (skin irradiated for 30 min with IR device Dev5, positioned 5 minutes after application) 20%; (skin irradiated for 2 h after each application with IR devices Dev4-6, one run each, all three devices) “more than 27%”; (skin irradiated for 2 h after each application with device Dev1 (red OLED), recipient samples by HPLC) 14%.

Values taken from patent US9597527B2, “Enhancement of penetration and action” (Merck Patent GmbH, priority 2010, dated 2017).
